In patent publication US20250073198A1, “COMPOUNDS AND USE THEREOF FOR THE TREATMENT OF DISEASES ASSOCIATED WITH IMPAIRED ß-GALACTOSIDASE ACTIVITY” (DORPHAN SA, priority 2022, published 2025):
pIC50: −log10 of the molar value.

How the values were obtained:
[1] = prior art statement; cited from earlier work
[2] = including pediatric patients; cited from earlier work
cathepsin B = target: T1, cathepsin B (Sus scrofa, UniProt A1E295); test: In-vitro enzymatic activity assay on isolated cathepsin B (pork liver homogenate, Z-FR-AMC substrate); type: biochemical; details: for pIC50: ester prodrug hydrolysed with NaOH to the free acid, 1 hour at 37° C., pH 6.0, read-out: IC50, inhibition of cathepsin B (catB) activity in pork liver homogenate; for inhibitory activity against isolated catB, compared to E64c: pork liver homogenate, result in words
T1 construct: from tissue; host or cells: pork liver homogenate
Method: The ability of the compounds VRO006_hydrol, VRO047_hydrol, VRO052_hydrol, VRO059_hydrol, VRO073_hydrol, VRO109_hydrol, VRO244_hydrol, VRO001_hydrol, VRO082_hydrol, VRO035_hydrol, VRO119_hydrol, and VRO243_hydrol to inhibit isolated cathepsin B was assessed in an enzymatic assay and compared to the inhibitory activity of the prior art E64c. In this assay, the compounds VRO006, VRO042, VRO047, VRO052, VRO059, VRO073, VRO109, VRO244, VRO001, VRO082, VRO035, VRO119, and VRO243 were used and the assay was performed in the presence of NaOH, in order to simulate the ester cleavage that occurs within the gastrointestinal tract, and to release the free acid (VROxxx_hydrol compound) from the prodrug (corresponding VROxxx compound). The chemical structures of compounds […], VRO042, VRO047, VRO052, VRO059, VRO073, […] and VRO244 and their chemical names are provided in [Table 2] above. The structures of VRO001, VRO082, VRO035, VRO119 and VRO243 are provided in [Table 3] below. The cathepsin B was from pork liver homogenate.
The enzymatic assay was performed as follows. Samples of homogenized pork liver (75 mg of fresh tissue per sample) were incubated for 1 hour at 37° C. with Z—FR-AMC (benzyloxycarbonyl-L-[…]-4-methylcoumaryl-7-amide) at […] in 1 M sodium acetate pH 6.0, supplemented with 2.5 mM EDTA, 2.5 mM DTT and 0.1% Triton X-100, and graded concentrations of test substances (between 0.1 nM and […]). The stock solutions of test substances were at 20 mM in DMSO. Fluorescence was determined at 445 nm using 365 nm as the excitation wavelength.

Compound | pIC50 (cathepsin B) | inhibitory activity against isolated catB, compared to E64c (cathepsin B) | penetration of the blood-brain barrier [1] | toxicity for human in 3-year clinical trials [2]
CCOC(=O)[C@H]1O[C@@H]1C(=O)N[C@@H](CC(C)C)C(=O)NCCC(C)C [Compound E64d] | – | – | low penetration of the blood-brain barrier | non-toxicity for human
CC(C)CCNC(=O)C(CC(C)C)N(C)C(=O)C1OC1C(=O)O (stereo not shown) [VRO001_hydrol] | < 7.00 | unable to inhibit catB | – | –
CCOC(=O)[C@H]1O[C@@H]1C(=O)N[C@@H](CC(C)C)C(=O)N(C)CCC(C)C [VRO006, Ethyl (2S,3S)-3-(((S)-1-(isopentyl(methyl)amino)-4-methyl-1-oxopentan-2-yl)carbamoyl)oxirane-2-carboxylate] | – | quite similar to the one of E64c | – | –
CC(C)CC(NC(=O)C1OC1C(=O)O)C(=O)NCCC(F)(F)F (stereo not shown) [VRO035_hydrol] | < 7.00 | inhibitory activity was lost | – | –
COCC(NC(=O)C1OC1C(=O)O)C(=O)NCCC(C)C (stereo not shown) [VRO082_hydrol] | < 7.00 | did not allow to maintain the inhibitory activity | – | –
CC(C)CCNC(=O)C(Cc1ccccn1)NC(=O)C1OC1C(=O)O (stereo not shown) [VRO119_hydrol] | < 7.00 | not tolerated | – | –
CC(C)CCN(C)C(=O)C(CC(F)(F)F)NC(=O)C1OC1C(=O)O (stereo not shown) [VRO243_hydrol] | < 7.00 | drastic loss of activity | – | –
O=C(NCc1ccccc1F)[C@H](CC(F)(F)F)NC(=O)[C@H]1O[C@@H]1C(=O)O [VRO244_hydrol, (2S,3S)-3-(((S)-4,4,4-trifluoro-1-((2-fluorobenzyl)amino)-1-oxobutan-2-yl)carbamoyl)oxirane-2-carboxylic acid] | ≥ 7.00 | only slightly lower than the prior art E64c | – | –

Second part, led by results:

pIC50 (cathepsin B) | inhibitory activity against isolated catB, compared to E64c (cathepsin B) | Compound | penetration of the blood-brain barrier [1] | toxicity for human in 3-year clinical trials [2]
≥ 7.00 | – | CC(C)CCN(C)C(=O)[C@H](CC(C)C)NC(=O)[C@H]1O[C@@H]1C(=O)O [VRO006_hydrol, (2S,3S)-3-(((S)-1-(isopentyl(methyl)amino)-4-methyl-1-oxopentan-2-yl)carbamoyl)oxirane-2-carboxylic acid] | – | –
≥ 7.00 | maintaining efficient inhibition of catB | COCCCNC(=O)[C@H](CC(C)C)NC(=O)[C@H]1O[C@@H]1C(=O)O [VRO042_hydrol, (2S,3S)-3-(((S)-1-((3-3-methoxypropyl)amino)-4-methyl-1-oxopentan-2-yl)carbamoyl)oxirane-2-carboxylic acid] | – | –
≥ 7.00 | almost the same activity as E64c | COCCNC(=O)[C@H](CC(C)C)NC(=O)[C@H]1O[C@@H]1C(=O)O [VRO047_hydrol, (2S,3S)-3-(((S)-1-((2-2-methoxyethyl)amino)-4-methyl-1-oxopentan-2-yl)carbamoyl)oxirane-2-carboxylic acid] | – | –
≥ 7.00 | only slightly reduced | CC(C)C[C@H](NC(=O)[C@H]1O[C@@H]1C(=O)O)C(=O)NCCc1ccccn1 [VRO052_hydrol, (2S,3S)-3-(((S)-4-methyl-1-oxo-1-((2-(pyridin-2-yl)ethyl)amino)pentan-2-yl)carbamoyl)oxirane-2-carboxylic acid] | – | –
≥ 7.00 | almost similar to E64c | CC(C)C[C@H](NC(=O)[C@H]1O[C@@H]1C(=O)O)C(=O)NCCCN1CCCCC1 [VRO059_hydrol, (2S,3S)-3-(((S)-4-methyl-1-oxo-1-((3-(piperidin-1-yl)propyl)amino)pentan-2-yl)carbamoyl)oxirane-2-carboxylic acid] | – | –
≥ 7.00 | only slightly reduced | CC(C)C[C@H](NC(=O)[C@H]1O[C@@H]1C(=O)O)C(=O)NCc1ccccc1F [VRO073_hydrol, (2S,3S)-3-(((S)-1-((2-fluorobenzyl)amino)-4-methyl-1-oxopentan-2-yl)carbamoyl)oxirane-2-carboxylic acid] | – | –
≥ 7.00 | increased compared to E64c | CC(C)CCNC(=O)[C@H](CC(F)(F)F)NC(=O)[C@H]1O[C@@H]1C(=O)O [VRO109_hydrol, (2S,3S)-3-(((S)-4,4,4-trifluoro-1-(isopentylamino)-1-oxobutan-2-yl)carbamoyl)oxirane-2-carboxylic acid] | – | –
